We go through 1 compound from patent publication US9808470B2, “Estrogenic components for use in the treatment of neurological disorders” (UNIVERSITE DE LIEGE, priority 2012, dated 2017).

The test system of test [1] is Myelin Basic Protein (MBP). Nature of the test: Ex.7 therapeutic HIE rat model: myelin basic protein staining. It is filed as in vivo. As to conditions: all the E4 treated groups, vs vehicle. Here is the method:
FIG. 22. Myelin Basic Protein (MBP) staining of brain coronal sections in rat pups that were treated with estetrol. Brains were removed upon sacrifice at postnatal day 14 and paraformaldehyde-fixed and paraffin-embedded brain samples were coronally sectioned at the hippocampus region. The sections were processed for detection of white matter damage through immunohistological staining with anti-MBP antibody. (A-F) MBP staining of brain coronal sections (scale bar: 2 mm) is shown. (G-L) MBP staining of cingulum of the left hemisphere is (scale bar: 2 mm) is shown. (M) The ratio of the MBP positive areas OD ratio was calculated as the MBP positive area OD of the ipsilateral hemisphere divided by the MBP positive area OD of the contralateral hemisphere. 10 samples from each study group were analyzed. The ratio of the MBP positive area OD in the Sham group was considered by default as 1.0.
The sections were processed for immunohistochemical detection of neuronal myelin basic protein disruption. For antigen retrieval, the sections were heated in 10 mmol/L citrate buffer (pH 6.0) at 100° C. for 10 min. […] 10 samples from each study group of both study designs were analyzed with the aid of an image scanner (Nanozoomer Virtual Microscopy, Hamamatsu, Tokyo, Japan) and ImageJ software (NIH, USA). The MBP positive areas optical densities in the ipsilateral and contralateral hemispheres were measured. […]

The subject of test [2] is glial fibrillary acidic protein (GFAP). The test can be described thus: Ex.8 neuroprotective HIE rat model: blood serum GFAP ELISA. The class given is in vivo. Here is the method:
Newborn rat pups were assigned to one of the following 14 groups from postnatal day 4 (FIG. 23(A)): Sham group (n=12), Vehicle group (n=17), 5 mg/kg/day E4 (n=13), 10 mg/kg/day E4 (n=10), 5 mg/kg/day E4+1.6 mg/kg/day PROG (n=11), 10 mg/kg/day E4+1.6 mg/kg/day PROG (n=11), 5 mg/kg/day E4+16 mg/kg/day PROG (n=11), 10 mg/kg/day E4+16 mg/kg/day PROG (n=11), 5 mg/kg/day E4+136 ng//kg/day E2 (n=11), 10 mg/kg/day E4+136 ng/kg/day E2 (n=11), 5 mg/kg/day E4+1.6 mg/kg/day PROG+136 ng/kg/day (n=13) E2, 10 mg/kg/day E4+1.6 mg/kg/day PROG+136 ng/kg/day E2 (n=16), 5 mg/kg/day E4+16 mg/kg/day PROG+136 ng/kg/day E2 (n=11), 10 mg/kg/day E4+16 mg/kg/day PROG+136 ng/kg/day groups (n=13). Intraperitoneal injections of the pups from study groups were performed from postnatal day 4 to postnatal day 7 inclusively. At day 7, 30 minutes after last injection, animals were anesthetized with isoflurane (induction, 3.0%; maintenance, 1.5%), and the rat pups from vehicle and all the other groups, except the sham group, passed through surgery encompassing left common carotid artery double ligation and cut. After the procedure, the pups were returned to their dams and were allowed to recover for 1 hour. The pups were then placed in the humidified hypoxic in vivo cabinet (CoyLab, Grass Lake, Mich., USA). […]
A general note: An ELISA detects its analyte on a solid surface through an enzyme-linked reagent.

Turning to `C[C@]12CC[C@@H]3c4ccc(O)cc4CC[C@H]3[C@@H]1[C@@H](O)[C@@H](O)[C@@H]2O` [E4, 1,3,5(10)-estratrien-3,15α,16α,17β-tetrol], the “ratio of the MBP-positive area OD” value in test [1] is recorded as “significantly higher”. The “concentration of GFAP in blood serum” value came out at 6220.49 ± 1763.17 pg/mL in test [2] (5 mg/kg/day, PND14) and 12413.45 ± 2243.05 pg·mL in test [2] (10 mg/kg/day E4, PND14).
